Laboratory results as given in the NIST ThermoML archive (doi:10.1016/j.jct.2006.05.008).

Experiment: molar heat capacity at constant pressure; wn = mass fraction of the nth substance listed
Settings: Small (less than 1 g) adiabatic calorimetry

CCCCn1cc[n+](C)c1.[Br-] [1-butyl-3-methylimidazolium bromide] + O
101.3 kPa, Glass, w2 = 0.00482
Settings	molar heat capacity at constant pressure [J/K/mol]
152.96 K	151.04
155.53 K	152.59
158.09 K	154.17
160.66 K	155.77
163.24 K	157.38
165.81 K	158.96
168.39 K	160.57
170.97 K	162.11
173.55 K	163.78
176.13 K	165.35
178.71 K	167.03
181.3 K	168.7
183.89 K	170.41
186.48 K	172.04

Crystal
Settings	molar heat capacity at constant pressure [J/K/mol]
153.47 K, w2 = 0.00482	140.32
154 K, w2 = 0.0495	102.07
154.55 K, w2 = 0.0169	127.32
154.86 K, w2 = 0.0051	140.76
156.05 K, w2 = 0.00482	141.71
156.62 K, w2 = 0.0169	128.46
156.86 K, w2 = 0.0495	103.54
157.46 K, w2 = 0.0051	142.19
158.64 K, w2 = 0.00482	143.05
158.69 K, w2 = 0.0169	129.54
159.72 K, w2 = 0.0495	105.03
160.06 K, w2 = 0.0051	143.6
160.76 K, w2 = 0.0169	130.58
161.22 K, w2 = 0.00482	144.52
162.58 K, w2 = 0.0495	107.12
162.67 K, w2 = 0.0051	145.04
162.83 K, w2 = 0.0169	131.81
163.81 K, w2 = 0.00482	145.98
164.91 K, w2 = 0.0169	133.35
165.35 K, w2 = 0.0051	146.89
165.42 K, w2 = 0.0495	110.43
166.4 K, w2 = 0.00482	147.42
166.98 K, w2 = 0.0169	135.28
167.95 K, w2 = 0.0051	148.6
168.2 K, w2 = 0.0495	119.37
168.99 K, w2 = 0.00482	148.99
169.05 K, w2 = 0.0169	138.58
170.54 K, w2 = 0.0051	150.98
170.84 K, w2 = 0.0495	133.87
171.1 K, w2 = 0.0169	143.34
171.58 K, w2 = 0.00482	150.69
173.12 K, w2 = 0.0051	153.72
173.15 K, w2 = 0.0169	146.3
173.43 K, w2 = 0.0495	137.89
174.17 K, w2 = 0.00482	152.56
175.22 K, w2 = 0.0169	148.17
175.7 K, w2 = 0.0051	155.58
176.02 K, w2 = 0.0495	137.25
176.76 K, w2 = 0.00482	154.52
177.3 K, w2 = 0.0169	149.6
178.27 K, w2 = 0.0051	157.05
178.63 K, w2 = 0.0495	136.83
179.35 K, w2 = 0.00482	156.32
179.39 K, w2 = 0.0169	150.75
180.85 K, w2 = 0.0051	158.5
181.26 K, w2 = 0.0495	136.85
181.47 K, w2 = 0.0169	151.73
181.94 K, w2 = 0.00482	158.09
182.13 K, w2 = 0.0495	137.03
183.43 K, w2 = 0.0051	159.93
183.55 K, w2 = 0.0169	152.69
183.89 K, w2 = 0.0495	137.25
184.55 K, w2 = 0.00482	159.97
184.8 K, w2 = 0.0495	137.33
185.63 K, w2 = 0.0169	153.62
186 K, w2 = 0.0051	161.23
186.52 K, w2 = 0.0495	137.88
187.15 K, w2 = 0.00482	161.48
